The values that follow come from the supplement of paper PMC11208160.

The data set is described as follows: recombinant UMI read abundance after kanamycin selection (control-corrected) (log10(CPM+1)); higher = more efficient recombination; extreme values may be limits of the assay; sequences stand for … in AGTGCAGAGAAAATCGGCCAGTTTTCTCTGCCTGCAGTCCGCATGCCGTGGGACCCCTTGGGTTCTAACCTGTTGCCTAGATTTATGCAGCGGACTGCCTTTCTCCCAAAGTGATAAACCGG…AGGTTGGTTTCACT; site = the 11-nt donor. In outline: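 For the IS621 bridge recombinase, a pooled Escherichia coli screen tested donor and donor-binding-loop pairs. Cells received the pair library together with a target plasmid encoding a fixed target and T7-inducible recombinase, then went onto IPTG (0.07 mM) plus kanamycin or unselected plates in duplicate. After PCR across the donor–target junction and sequencing, recombinant UMI counts were normalized to CPM, averaged, and scaled by control-derived factors. Each value is given as log10(CPM+1).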
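Further: IS621 bridge recombinase in Escherichia coli cells against a fixed T5 target plasmid.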

For the sequence “ATGTAGGCATGGACCGGTTTTCCCGGTAATCCGTATTTGGT (site ATGTAGGCTTC)”, the “recombinant UMI read abundance (log10)” value was found to be 0.0176. Then “ATGTCGCCATGGACCGGTTTTCCCGGTAATCCGTATTTGCC (site ATGTCGCCTGG)”, with 0; and “ATGTCGGCATGGACCGGTTTTCCCGGTAATCCGTATTTGTC (site ATGTCGGCTGA)”, with 2.23.

In the case of “ATGTGGACATGGACCGGTTTTCCCGGTAATCCGTATTTGAC (site ATGTGGACTGT)”, the “recombinant UMI read abundance (log10)” value turned out to be 2.94. On to “ATGTGGGCATGGACCGGTTTTCCCGGTAATCCGTATTTGGC (site ATGTAGGCTGC)”, for which the “recombinant UMI read abundance (log10)” value amounted to 2.78. Regarding “ATGTGGGCATGGACCGGTTTTCCCGGTAATCCGTATTTGGC (site ATGTCGGCTGC)”, the “recombinant UMI read abundance (log10)” value was 0. Then “ATGTGGGCATGGACCGGTTTTCCCGGTAATCCGTATTTGGC (site ATGTGGGCTGC)”, with 3.01; and “ATGTGGGCATGGACCGGTTTTCCCGGTAATCCGTATTTGGC (site ATGTTGGCTGC)”, with 0.0921; and “ATGTGTGCATGGACCGGTTTTCCCGGTAATCCGTATTTGAC (site ATGTGTGCTGT)”, with 2.78. “ATGTTACCATGGACCGGTTTTCCCGGTAATCCGTATTTGGT (site ATGTTACCTAC)”: the “recombinant UMI read abundance (log10)” value was 0.0171. As for “ATTACGGCATGGACCGGTTTTCCCGGTAATCCGTATTTGGA (site ATTACGGCTTC)”, the “recombinant UMI read abundance (log10)” value was 0.269.

“ATTACTTCATGGACCGGTTTTCCCGGTAATCCGTATTTGGG (site ATTACTTCTCC)”: the “recombinant UMI read abundance (log10)” value is 0.434. As for “ATTAGAACATGGACCGGTTTTCCCGGTAATCCGTATTTGGC (site ATTAGAACTGC)”, the “recombinant UMI read abundance (log10)” value amounted to 1.83. Regarding “ATTAGAACATGGACCGGTTTTCCCGGTAATCCGTATTTGGC (site CTTAGAACTGC)”, the “recombinant UMI read abundance (log10)” value was 1.73.

For “ATTAGAACATGGACCGGTTTTCCCGGTAATCCGTATTTGGC (site GTTAGAACTGC)”, the “recombinant UMI read abundance (log10)” value is 0. Take “ATTAGAACATGGACCGGTTTTCCCGGTAATCCGTATTTGGC (site TTTAGAACTGC)”: the “recombinant UMI read abundance (log10)” value worked out at 1.19. The result for “ATTAGTGCATGGACCGGTTTTCCCGGTAATCCGTATTTGGT (site AATAGTGCTAC)” reads 0.125; that for “ATTAGTGCATGGACCGGTTTTCCCGGTAATCCGTATTTGGT (site ACTAGTGCTAC)”, 0.675; that for “ATTAGTGCATGGACCGGTTTTCCCGGTAATCCGTATTTGGT (site AGTAGTGCTAC)”, 0.243.

For the sequence “ATTAGTGCATGGACCGGTTTTCCCGGTAATCCGTATTTGGT (site ATTAGTGCTAC)”, the “recombinant UMI read abundance (log10)” value is 1.05. As to “ATTCCGGCATGGACCGGTTTTCCCGGTAATCCGTATTTGCT (site ATTCCGGCTAG)”, the “recombinant UMI read abundance (log10)” value was 0.0043. Take “ATTCGAACATGGACCGGTTTTCCCGGTAATCCGTATTTGTT (site ATTCGAACTAA)”: the “recombinant UMI read abundance (log10)” value is 0.18. With “ATTCGTGCATGGACCGGTTTTCCCGGTAATCCGTATTTGAT (site ATTCGTGCTAT)”, the “recombinant UMI read abundance (log10)” value worked out at 0.866. Turning to “ATTCGTGCATGGACCGGTTTTCCCGGTAATCCGTATTTGTA (site ATTCGTGCTTA)”, the “recombinant UMI read abundance (log10)” value turned out to be 0.657. Regarding “ATTCGTGCATGGACCGGTTTTCCCGGTAATCCGTATTTGTG (site ATTCGTGCTCA)”, the “recombinant UMI read abundance (log10)” value was 0.309. Then “ATTCTTACATGGACCGGTTTTCCCGGTAATCCGTATTTGGT (site ATTCTTACTAC)”, with 0.37. For “ATTGTATCATGGACCGGTTTTCCCGGTAATCCGTATTTGAG (site ATTGTATCTCT)”, the “recombinant UMI read abundance (log10)” value is 1.59. Then “ATTTAAACATGGACCGGTTTTCCCGGTAATCCGTATTTGAC (site ATTTAAACTGT)”, with 1.18; and “ATTTAGACATGGACCGGTTTTCCCGGTAATCCGTATTTGGT (site ATTAAGACTAC)”, with 0.513. For “ATTTAGACATGGACCGGTTTTCCCGGTAATCCGTATTTGGT (site ATTCAGACTAC)”, the “recombinant UMI read abundance (log10)” value amounted to 0.475. For the sequence “ATTTAGACATGGACCGGTTTTCCCGGTAATCCGTATTTGGT (site ATTGAGACTAC)”, the “recombinant UMI read abundance (log10)” value stood at 0.0177. Consider “ATTTAGACATGGACCGGTTTTCCCGGTAATCCGTATTTGGT (site ATTTAGACTAC)”, for which the “recombinant UMI read abundance (log10)” value was 0.955. As to “ATTTAGGCATGGACCGGTTTTCCCGGTAATCCGTATTTGGC (site ATATAGGCTGC)”, the “recombinant UMI read abundance (log10)” value came to 1.64. As to “ATTTAGGCATGGACCGGTTTTCCCGGTAATCCGTATTTGGC (site ATCTAGGCTGC)”, the “recombinant UMI read abundance (log10)” value was 0.928. Regarding “ATTTAGGCATGGACCGGTTTTCCCGGTAATCCGTATTTGGC (site ATGTAGGCTGC)”, the “recombinant UMI read abundance (log10)” value came out at 0.42.

As to “ATTTAGGCATGGACCGGTTTTCCCGGTAATCCGTATTTGGC (site ATTTAGGCTGC)”, the “recombinant UMI read abundance (log10)” value turned out to be 1.93.

Consider “ATTTATTCATGGACCGGTTTTCCCGGTAATCCGTATTTGAG (site ATTTATTCTCT)”, for which the “recombinant UMI read abundance (log10)” value came to 1.61. Turning to “ATTTCACCATGGACCGGTTTTCCCGGTAATCCGTATTTGGC (site ATTTCACCTGC)”, the “recombinant UMI read abundance (log10)” value came out at 0. Then “ATTTCTACATGGACCGGTTTTCCCGGTAATCCGTATTTGTC (site ATTTCTACTGA)”, with 0.00552. Then “ATTTGAGCATGGACCGGTTTTCCCGGTAATCCGTATTTGCG (site ATTTGAGCTCG)”, with 0.336; and “ATTTGTTCATGGACCGGTTTTCCCGGTAATCCGTATTTGGA (site ATTTGTTCTTC)”, with 1.4. In the case of “CAAAAGCCATGGACCGGTTTTCCCGGTAATCCGTATTTGTC (site CAAAAGCCTGA)”, the “recombinant UMI read abundance (log10)” value amounted to 0. Take “CAAAATACATGGACCGGTTTTCCCGGTAATCCGTATTTGGC (site CAAAATACTGC)”: the “recombinant UMI read abundance (log10)” value stood at 0. Take “CAAACACCATGGACCGGTTTTCCCGGTAATCCGTATTTGAC (site CAAACACCTGT)”: the “recombinant UMI read abundance (log10)” value is 0.00914. For the sequence “CAAACGACATGGACCGGTTTTCCCGGTAATCCGTATTTGTT (site CAAACGACTAA)”, the “recombinant UMI read abundance (log10)” value amounted to 1.41. As for “CAAAGCTCATGGACCGGTTTTCCCGGTAATCCGTATTTGAA (site CAAAGCTCTTT)”, the “recombinant UMI read abundance (log10)” value was found to be 3.18. Take “CAAAGCTCATGGACCGGTTTTCCCGGTAATCCGTATTTGAA (site CAACGCTCTTT)”: the “recombinant UMI read abundance (log10)” value was determined as 0.0122. Consider “CAAAGCTCATGGACCGGTTTTCCCGGTAATCCGTATTTGAA (site CAAGGCTCTTT)”, for which the “recombinant UMI read abundance (log10)” value worked out at 0.579. With “CAAAGCTCATGGACCGGTTTTCCCGGTAATCCGTATTTGAA (site CAATGCTCTTT)”, the “recombinant UMI read abundance (log10)” value came out at 0.0194.

As for “CAAATACCATGGACCGGTTTTCCCGGTAATCCGTATTTGAC (site CAAATACCTGT)”, the “recombinant UMI read abundance (log10)” value is 0.

As to “CAAATCCCATGGACCGGTTTTCCCGGTAATCCGTATTTGGA (site CAAATCCCTTC)”, the “recombinant UMI read abundance (log10)” value worked out at 0.334. Regarding “CAAATCTCATGGACCGGTTTTCCCGGTAATCCGTATTTGCA (site CAAATCTCTTG)”, the “recombinant UMI read abundance (log10)” value was found to be 1.85.

Consider “CAACAACCATGGACCGGTTTTCCCGGTAATCCGTATTTGAA (site CAACAACCTTT)”, for which the “recombinant UMI read abundance (log10)” value was 0.102. In the case of “CAACACACATGGACCGGTTTTCCCGGTAATCCGTATTTGTG (site CAACACACTCA)”, the “recombinant UMI read abundance (log10)” value turned out to be 0.834.

Consider “CAACGCTCATGGACCGGTTTTCCCGGTAATCCGTATTTGAA (site CAAAGCTCTTT)”, for which the “recombinant UMI read abundance (log10)” value came out at 0.00291.

On to “CAACGCTCATGGACCGGTTTTCCCGGTAATCCGTATTTGAA (site CAACGCTCTTT)”, for which the “recombinant UMI read abundance (log10)” value was found to be 2.06.

“CAACGCTCATGGACCGGTTTTCCCGGTAATCCGTATTTGAA (site CAAGGCTCTTT)”: the “recombinant UMI read abundance (log10)” value is 0.00387. As to “CAACGCTCATGGACCGGTTTTCCCGGTAATCCGTATTTGAA (site CAATGCTCTTT)”, the “recombinant UMI read abundance (log10)” value was 0.0343.

For “CAACTCCCATGGACCGGTTTTCCCGGTAATCCGTATTTGCT (site CAAATCCCTAG)”, the “recombinant UMI read abundance (log10)” value was 0.818. Turning to “CAACTCCCATGGACCGGTTTTCCCGGTAATCCGTATTTGCT (site CAACTCCCTAG)”, the “recombinant UMI read abundance (log10)” value stood at 1.86. For the sequence “CAACTCCCATGGACCGGTTTTCCCGGTAATCCGTATTTGCT (site CAAGTCCCTAG)”, the “recombinant UMI read abundance (log10)” value was 0.00625. For the sequence “CAACTCCCATGGACCGGTTTTCCCGGTAATCCGTATTTGCT (site CAATTCCCTAG)”, the “recombinant UMI read abundance (log10)” value was found to be 0.765. As to “CAACTTTCATGGACCGGTTTTCCCGGTAATCCGTATTTGGT (site CAACTTTCTAC)”, the “recombinant UMI read abundance (log10)” value was determined as 0.82.

“CAAGATTCATGGACCGGTTTTCCCGGTAATCCGTATTTGTT (site AAAGATTCTAA)”: the “recombinant UMI read abundance (log10)” value is 0. Take “CAAGATTCATGGACCGGTTTTCCCGGTAATCCGTATTTGTT (site CAAGATTCTAA)”: the “recombinant UMI read abundance (log10)” value worked out at 3.22. For the sequence “CAAGATTCATGGACCGGTTTTCCCGGTAATCCGTATTTGTT (site GAAGATTCTAA)”, the “recombinant UMI read abundance (log10)” value is 0. With “CAAGATTCATGGACCGGTTTTCCCGGTAATCCGTATTTGTT (site TAAGATTCTAA)”, the “recombinant UMI read abundance (log10)” value turned out to be 0.464. In the case of “CAAGCGCCATGGACCGGTTTTCCCGGTAATCCGTATTTGCG (site CAAGCGCCTCA)”, the “recombinant UMI read abundance (log10)” value turned out to be 0.0343.
